# Measurements published in patent US7972814B2, “Antimicrobial polypeptides from Pseudoplectania nigrella” (Novozymes Adenivro Biotech A/S, priority 2001, dated 2011).
# Tests used:
# E. coli = test: Growth inhibition of E. coli upon induction of endogenous Plectasin expression (suicide expression system); assay type: cell-based
# Experimental: In order to evaluate whether E. coli was growth inhibited in liquid media upon induction of endogenous Plectasin expression, the following experiment was conducted as disclosed in the examples of international patent application WO 00/73433. Briefly, fresh overnight cultures of cells containing either pDRS-18-plectasin, pDR-18-plectasin, pHH or pHHA plasmid were diluted 300-fold into 150 micro liter of LB or LB containing 0.1% arabinose in a microtiter plate and incubated at 37 degrees Celsius with vigorous shaking. The growth curve was monitored by measuring OD450 at regular intervals using an ELISA reader.
# Bacillus subtilis = test: Antimicrobial activity by radial diffusion assay; assay type: cell-based
# Experimental: A modified version of a previously published protocol has been applied in the detection of antimicrobial activity (Lehrer et al., (1991) Ultrasensitive assays for endogenous antimicrobial polypeptides J Immunol Methods 137: 167-173). Target bacteria (10^6 colony forming units (CFU)) were added to 10 ml of underlay agarose (1% low electro-endosmosis agarose, 0.03% Trypticase soy broth, 10 mM sodium phosphat, pH 7.4, 37 degrees Celsius). Suspension was solidified on an INTEGRID Petri Dish (Becton Dickinson Labware, N.J.). A 3 mm Gel Puncher was used to make holes in the underlay agarose (Amersham Pharmacia Biotech, Sweden). Samples were added to the holes and incubated at 37 degrees Celsius, 3 hours. An overlay was poured on top and the plate was incubated overnight (LB media, 7.5% Agar). Antimicrobial activity was seen as bacterial clearing zones around the wells. Living cells was counterstained by adding 10 ml, 0.2 mM MTT (3-(4,5-Dimethylthiazol-2-yl)-2,5-diphenyltetrazolium bromide Thiazolyl blue). All standard protocols has been described elsewhere (Sambrook, Fritsch, and Maniatis, 1989).
# To evaluate the anti-microbial activity of Plectasin, fermentation broths of recombinant Aspergillus oryzae were applied in 2-fold serial dilutions in a radial diffusion assay (described above). […]
# The supernatants described above were analyzed in a radial diffusion assay as described in Example 5. […]
substance,measurement,setting,value
Plectasin,inhibition of cell growth,E. coli; Plectasin directed to the periplasm,41%
same,effect on cell growth,E. coli; Plectasin expressed in the cytoplasm,did not affect cell growth
same,increase in antimicrobial activity of the peptide,Bacillus subtilis; produced in E. coli Origami-DE3 (inclusion bodies) versus the earlier E. coli host,5-10 fold
same,largest clearing zone,Bacillus subtilis; undiluted fermentation broth of recombinant Aspergillus oryzae,15 mm
